The values below come from patent US20130137573A1, “HERBICIDAL COMPOSITIONS COMPRISING, AND METHODS OF USE OF, HERBICIDALLY ACTIVE PYRANDIONES” (priority 2009, published 2013).

In assay [1] the test system is Echinochloa crus-galli (ECHCG). Put plainly: Biological Example 1 (Test 125): visual herbicidal damage to flooded ECHCG. The assay is classed as in vivo. Conditions: 200 g/ha fenoxasulfone applied alone, 14 DAA. The protocol:
(§1) Rice seeds, variety IR-64 (an indica type of rice), were sown in seed trays. After 7 days the resulting plants were transplanted as 3 groups of 2 plants, into pots containing a standard sandy loam soil saturated with water replicating swampy conditions. These were grown on for a further 9 days in a glasshouse bay (30/20° C. day/night; 18/6 hours light/dark; 75% humidity). Leptochloa chinensis (LEFCH) and Echinochloa crus-galli (ECHCG) were sown as 2 separate groups of approx 10-20 seeds into pots 13 days prior to application of the test substances, in the same glasshouse conditions as the rice. Therefore, each pot of weeds contained a group of LEFCH and a separate group of ECHCG. All pots of rice and all pots of weeds were flooded to 2-3 cm water depth the day prior to application of the test substances. Growth stages at time of application were as follows: Rice: from 2 leaves on the main stem up to tillering; ECHCG: from 2 leaves on the main stem up to tillering; LEFCH: 2-3 leaves.
Test solutions were prepared by mixing the appropriate aliquots of the test substances in deionised water to give the desired treatment concentration. Most of the test substances were used as formulated products. Specifically, compound A-13 was applied as the EC050 formulation disclosed in Formulation Example 1 herein (EC=emulsifiable concentrate). Reference compound A-4 was applied as the EC050 formulation disclosed in Reference Formulation Example 2 herein. Pyroxasulfone (a comparator co-herbicide) was applied as the SC050 formulation disclosed in Reference Formulation Example 6 herein (SC=Suspension concentrate). Imazosulfuron (a comparator co-herbicide) was applied as a GR0.25 formulation (GR=granule).
The test substances which were pure active ingredient (e.g. propyrisulfuron & fenoxasulfone & compound A-16) (labelled as ‘Technical’ in the following results table), were prepared by dissolving in 10.56% Emulsogen EL™ (castor oil ethoxylate, CAS Registry number 61791-12-6), 42.22% N-methylpyrrolidone and 42.22% dipropylene glycol mono-ethyl ether to give a stock solution containing 5% of the test substance and 95% of (Emulsogen EL™, N-methylpyrrolidone and dipropylene glycol mono-ethyl ether).
Application of the test substances was made by pipetting the required amount of the test solution or the test formulation gently into the flood water of the appropriate pot.
The test plants were then grown on in the same glasshouse conditions, and watered twice daily keeping the flood water at a depth of 2-3 cm.
A visual assessment of the % herbicidal damage was made 7 & 14 days after application […], and the results are presented herein as % visual herbicidal damage where 0=no damage to plants and 100=total kill.

Assay [2] concerns Leptochloa chinensis (LEFCH). Put plainly: Biological Example 1 (Test 125): visual herbicidal damage to flooded LEFCH. In kind it is in vivo. Conditions: 200 g/ha fenoxasulfone applied alone, 14 DAA. The protocol:
as §1
Test solutions were prepared by mixing the appropriate aliquots of the test substances in deionised water to give the desired treatment concentration. Most of the test substances were used as formulated products. Specifically, compound A-13 was applied as the EC050 formulation disclosed in Formulation Example 1 herein (EC=emulsifiable concentrate). […]

In the case of `CCOc1cc(Cl)c(CS(=O)(=O)C2=NOC(C)(C)C2)cc1Cl` [fenoxasulfone, reference compound], the ECHCG control in assay [1] is recorded as 65%. For the same compound, the LEFCH control in assay [2] is listed as 70%.
